Experimental data published in patent publication US6916812B2, “Alpha-aminoamide derivatives as melanocortin agonists” (Bristol-Myers Squibb Company, priority 2001, dated 2005).

Target: T1, cloned human MC4R (Homo sapiens, UniProt P32245)
T1 construct: made in house; host or cells: Hi5 insect cells (baculovirus infection); membrane preparation
Assay: Membrane binding assay: competitive inhibition of [125I]NDP-α-MSH binding
Details: for Displacement Rate (%) (at 10 μM): [125I]NDP-α-MSH displacement; for IC50: read-out: MC4R IC50

T1 sequence (P32245 whole entry): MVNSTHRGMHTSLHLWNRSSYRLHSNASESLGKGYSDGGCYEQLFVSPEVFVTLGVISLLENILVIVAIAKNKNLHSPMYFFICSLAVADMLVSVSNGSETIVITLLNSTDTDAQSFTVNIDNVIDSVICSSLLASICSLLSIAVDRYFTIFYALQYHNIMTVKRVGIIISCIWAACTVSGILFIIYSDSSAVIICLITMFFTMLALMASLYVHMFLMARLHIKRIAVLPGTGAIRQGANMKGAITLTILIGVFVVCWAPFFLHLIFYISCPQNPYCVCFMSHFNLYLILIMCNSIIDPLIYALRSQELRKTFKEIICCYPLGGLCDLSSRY

| Compound | Displacement Rate (%) (at 10 μM) | IC50 |
| --- | --- | --- |
| CSc1ccc(COc2ccc(C[C@H](N)C(=O)N3CCN(Cc4cccc(Cl)c4Cl)CC3)cc2)cc1 [Example 224] | ++ (++ = 71-90) | 1500 to 3000 nM |
| COc1ccc(COc2ccc(C[C@H](N)C(=O)N3CCN(Cc4cccc(Cl)c4Cl)CC3)cc2)cc1 [Example 225] | ++ (++ = 71-90) | > 3000 nM |
| N[C@@H](Cc1ccc(OCc2c(Cl)cccc2Cl)cc1)C(=O)N1CCN(Cc2cccc(Cl)c2Cl)CC1 [Example 226] | ++ (++ = 71-90) | 1500 to 3000 nM |
| COc1ccc(OC)c(COc2ccc(C[C@H](N)C(=O)N3CCN(Cc4cccc(Cl)c4Cl)CC3)cc2)c1 [Example 227] | ++ (++ = 71-90) | > 3000 nM |
| COc1ccc(COc2ccc(C[C@H](N)C(=O)N3CCN(Cc4cccc(Cl)c4Cl)CC3)cc2)c(OC)c1 [Example 228] | ++ (++ = 71-90) | > 3000 nM |
| N[C@@H](Cc1ccc(OCc2cc3c(cc2[N+](=O)[O-])OCO3)cc1)C(=O)N1CCN(Cc2cccc(Cl)c2Cl)CC1 [Example 229] | ++ (++ = 71-90) | > 3000 nM |
| CCCCOc1ccc(COc2ccc(C[C@H](N)C(=O)N3CCN(Cc4cccc(Cl)c4Cl)CC3)cc2)cc1 [Example 230] | ++ (++ = 71-90) | 1500 to 3000 nM |
| COc1ccccc1COc1ccc(C[C@H](N)C(=O)N2CCN(Cc3cccc(Cl)c3Cl)CC2)cc1 [Example 231] | ++ (++ = 71-90) | > 3000 nM |
| N[C@@H](Cc1ccc(OCc2c3ccccc3cc3ccccc23)cc1)C(=O)N1CCN(Cc2cccc(Cl)c2Cl)CC1 [Example 232] | ++ (++ = 71-90) | > 3000 nM |
| COc1cccc(COc2ccc(C[C@H](N)C(=O)N3CCN(Cc4cccc(Cl)c4Cl)CC3)cc2)c1OC [Example 233] | + (+ = 35-70) | > 3000 nM |
| COc1ccc(COc2ccc(C[C@H](N)C(=O)N3CCN(Cc4cccc(Cl)c4Cl)CC3)cc2)cc1OC [Example 234] | + (+ = 35-70) | > 3000 nM |
| N[C@@H](Cc1ccc(OCc2ccc3c(c2)OCO3)cc1)C(=O)N1CCN(Cc2cccc(Cl)c2Cl)CC1 [Example 235] | + (+ = 35-70) | > 3000 nM |
| COc1cc(COc2ccc(C[C@H](N)C(=O)N3CCN(Cc4cccc(Cl)c4Cl)CC3)cc2)cc(OC)c1OC [Example 236] | + (+ = 35-70) | – |

Results, then the molecule that gave them:

| Displacement Rate (%) (at 10 μM) | IC50 | Compound |
| --- | --- | --- |
| +++ (+++ = 91-100) | < 1500 nM | CCc1ccc(COc2ccc(C[C@H](N)C(=O)N3CCN(Cc4cccc(Cl)c4Cl)CC3)cc2)cc1 [Example 220] |
| +++ (+++ = 91-100) | 1500 to 3000 nM | CCOc1ccccc1COc1ccc(C[C@H](N)C(=O)N2CCN(Cc3cccc(Cl)c3Cl)CC2)cc1 [Example 221] |
| +++ (+++ = 91-100) | 1500 to 3000 nM | N[C@@H](Cc1ccc(OCc2c(F)cccc2Cl)cc1)C(=O)N1CCN(Cc2cccc(Cl)c2Cl)CC1 [Example 222] |
| +++ (+++ = 91-100) | 1500 to 3000 nM | N[C@@H](Cc1ccc(OCc2ccc([N+](=O)[O-])cc2)cc1)C(=O)N1CCN(Cc2cccc(Cl)c2Cl)CC1 [Example 223] |
| +++ (+++ = 91-100) | < 1500 nM | Cc1ccccc1CCOc1ccc(C[C@H](N)C(=O)N2CCN(Cc3cccc(Cl)c3Cl)CC2)cc1 [Example 237] |
| +++ (+++ = 91-100) | < 1500 nM | N[C@@H](Cc1ccc(OCCc2ccccc2)cc1)C(=O)N1CCN(Cc2cccc(Cl)c2Cl)CC1 [Example 238] |
| +++ (+++ = 91-100) | < 1500 nM | Cc1ccc(CCOc2ccc(C[C@H](N)C(=O)N3CCN(Cc4cccc(Cl)c4Cl)CC3)cc2)cc1 [Example 239] |
| +++ (+++ = 91-100) | < 1500 nM | N[C@@H](Cc1ccc(OCCc2cccc(F)c2)cc1)C(=O)N1CCN(Cc2cccc(Cl)c2Cl)CC1 [Example 240] |
